Experimental data as given in publication PMC11343403, “A novel TREX1 inhibitor, VB-85680, upregulates cellular interferon responses” (PLOS ONE, 2024).

Assays:
[1] = molecular target: T1, TREX1 (Three-prime Repair EXonuclease 1), mouse (Mus musculus, UniProt Q91XB0); test: fluorescence exonuclease assay (FAM-12mer-BHQ1) in HEK293T overexpression lysate, with D18N and empty-vector controls; type: biochemical
T1 construct: full-length mouse TREX1 (wild-type), overexpressed in HEK293T
T1 sequence (Q91XB0 1-314): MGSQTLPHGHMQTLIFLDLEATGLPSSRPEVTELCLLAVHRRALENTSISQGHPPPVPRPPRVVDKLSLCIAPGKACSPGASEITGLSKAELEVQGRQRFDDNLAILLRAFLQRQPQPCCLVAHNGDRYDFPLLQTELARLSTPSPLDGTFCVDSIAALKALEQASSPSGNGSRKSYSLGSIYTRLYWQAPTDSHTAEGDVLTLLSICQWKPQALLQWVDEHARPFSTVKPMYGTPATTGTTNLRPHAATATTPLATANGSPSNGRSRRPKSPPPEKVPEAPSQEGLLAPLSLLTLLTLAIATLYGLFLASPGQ

[2] = molecular target: T2, TREX1 (Three-prime Repair EXonuclease 1), human (Homo sapiens, UniProt Q9NSU2); test: BioVision […]' to […]' exonuclease activity assay in THP1-Dual lysate, with TREX1 knockout lysate control; type: biochemical
T2 construct: endogenous human TREX1 in THP1-Dual cell lysate
T2 sequence (Q9NSU2 1-314): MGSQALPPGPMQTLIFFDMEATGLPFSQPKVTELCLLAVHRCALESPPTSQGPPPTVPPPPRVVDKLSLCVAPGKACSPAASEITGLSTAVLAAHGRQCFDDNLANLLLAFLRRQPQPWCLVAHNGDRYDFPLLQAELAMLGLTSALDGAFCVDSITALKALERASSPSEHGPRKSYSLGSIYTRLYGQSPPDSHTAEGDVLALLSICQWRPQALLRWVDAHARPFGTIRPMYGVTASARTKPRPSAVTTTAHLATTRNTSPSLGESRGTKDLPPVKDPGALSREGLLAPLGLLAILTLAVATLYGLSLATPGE

IC50 [1]: 3.1 nM
IC50 [2]: 48.8 nM
Substance: VB-85680
